“And” between values parts separate entries of the source, which are not always exact repeats. Identical values can stand only once. Toxic doses and inconclusive results are not listed. No stated cut-off is given here; in the data, active means T/C of 150% or more; inactive means T/C below 125%.
Test system: L1210 leukemia ip in BDF1 mice, survival T/C
Test: NCI In Vivo Anticancer Drug Screen. Data for tumor model L1210 Leukemia (intraperitoneal) in B6D2F1 (BDF1) mice
Conditions: endpoint: mean survival time, higher = longer survival
Summary of the method: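 Tumor was transplanted into mice, which were then dosed with test compound or vehicle alone. Survival was recorded for each group, and the treated figure was expressed relative to the control figure.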

[1] = dose: 100.0 mg/kg/injection, schedule: Q01DX009 (ip), vehicle: Klucel (hydroxypropylcellulose) (HPC)
[2] = dose: 100.0 mg/kg/injection, schedule: Q04DX003 (ip), vehicle: saline with Tween-80
[3] = dose: 50.0 mg/kg/injection, schedule: Q01DX009 (ip), vehicle: saline with Tween-80
[4] = dose: 100.0 mg/kg/injection, schedule: Q01DX009 (ip), vehicle: saline with Tween-80
[5] = dose: 200.0 mg/kg/injection, schedule: Q04DX003 (ip), vehicle: saline with Tween-80
[6] = dose: 100.0 mg/kg/injection, schedule: Q01DX009 (ip), vehicle: saline
[7] = dose: 100.0 mg/kg/injection, schedule: Q04DX003 (ip), vehicle: saline
[8] = dose: 200.0 mg/kg/injection, schedule: Q01DX009 (ip), vehicle: saline
[9] = dose: 400.0 mg/kg/injection, schedule: Q01DX009 (ip), vehicle: saline
[10] = dose: 100.0 mg/kg/injection, schedule: Q01DX001 (ip), vehicle: saline
[11] = dose: 200.0 mg/kg/injection, schedule: Q01DX001 (ip), vehicle: saline
[12] = dose: 400.0 mg/kg/injection, schedule: Q01DX001 (ip), vehicle: saline
[13] = dose: 200.0 mg/kg/injection, schedule: Q01DX009 (ip), vehicle: Klucel (hydroxypropylcellulose) (HPC)
[14] = dose: 400.0 mg/kg/injection, schedule: Q01DX009 (ip), vehicle: Klucel (hydroxypropylcellulose) (HPC)
[15] = dose: 200.0 mg/kg/injection, schedule: Q01DX009 (ip), vehicle: saline with Tween-80
[16] = dose: 100.0 mg/kg/injection, schedule: Q01DX009 (ip), vehicle: gum acacia
[17] = dose: 200.0 mg/kg/injection, schedule: Q01DX009 (ip), vehicle: gum acacia
[18] = dose: 400.0 mg/kg/injection, schedule: Q01DX009 (ip), vehicle: gum acacia
[19] = dose: 200.0 mg/kg/injection, schedule: Q01DX001 (ip), vehicle: carboxymethylcellulose (CMC)
[20] = dose: 400.0 mg/kg/injection, schedule: Q01DX001 (ip), vehicle: carboxymethylcellulose (CMC)
[21] = dose: 25.0 mg/kg/injection, schedule: Q04DX002 (ip), vehicle: Klucel (hydroxypropylcellulose) (HPC)
[22] = dose: 50.0 mg/kg/injection, schedule: Q04DX002 (ip), vehicle: Klucel (hydroxypropylcellulose) (HPC)
[23] = dose: 100.0 mg/kg/injection, schedule: Q04DX003 (ip), vehicle: Klucel (hydroxypropylcellulose) (HPC)
[24] = dose: 200.0 mg/kg/injection, schedule: Q04DX003 (ip), vehicle: Klucel (hydroxypropylcellulose) (HPC)
[25] = dose: 400.0 mg/kg/injection, schedule: Q04DX003 (ip), vehicle: Klucel (hydroxypropylcellulose) (HPC)
[26] = dose: 100.0 mg/kg/injection, schedule: Q04DX002 (ip), vehicle: Klucel (hydroxypropylcellulose) (HPC)

Measured: T/C

O=[N+]([O-])c1ccc(Oc2ccc[n+]([O-])c2)c([N+](=O)[O-])c1
inactive: dose: 50.0 mg/kg/injection, schedule: Q01DX009 (ip), vehicle: Klucel (hydroxypropylcellulose) (HPC) 102 % of control | [1] 102 % of control | [2] 96 % of control

C=C(Cl)c1c(C)cc(C)cc1C
inactive: dose: 25.0 mg/kg/injection, schedule: Q01DX009 (ip), vehicle: saline with Tween-80 98 % of control | [3] 104 % of control | [4] 98 % of control and 88 % of control | [2] 97 % of control | [5] 86 % of control

O=C(c1ccc(O)cc1)c1c[nH]c2c(O)ccc(O)c12
inactive: dose: 25.0 mg/kg/injection, schedule: Q04DX002 (ip), vehicle: saline + alcohol 98 % of control | dose: 50.0 mg/kg/injection, schedule: Q04DX002 (ip), vehicle: saline + alcohol 91 % of control

BrC1CCC2C(CCC(Br)C23OCCO3)C12OCCO2 (stereo not drawn)
inactive: [6] 91 % of control | [7] 89 % of control | [8] 98 % of control | [9] 91 % of control | dose: 400.0 mg/kg/injection, schedule: Q04DX003 (ip), vehicle: saline 108 % of control

O=[N+]([O-])c1cc([N+](=O)[O-])c2ccc(Cl)nc2c1O
inactive: [10] 98 % of control | [11] 98 % of control | [12] 96 % of control

COc1cc2c(cc1OC)C(=O)C(Br)N(S(=O)(=O)c1ccc(C)cc1)CC2 (stereo not drawn)
inactive: [6] 96 % of control | [8] 97 % of control | [9] 93 % of control

CCC(Cl)COP(=O)(OCC(Cl)CC)O/C(C)=C(/C)P(=O)(OCC(Cl)CC)OCC(Cl)CC (stereo not drawn)
inactive: dose: 100.0 mg/kg/injection, schedule: Q04DX002 (ip), vehicle: saline with Tween-80 104 % of control | dose: 200.0 mg/kg/injection, schedule: Q04DX002 (ip), vehicle: saline with Tween-80 96 % of control | dose: 400.0 mg/kg/injection, schedule: Q04DX002 (ip), vehicle: saline with Tween-80 100 % of control

COC1OC(CO)C2OC(C)(C)OC2C1O (stereo not drawn)
inactive: dose: 100.0 mg/kg/injection, schedule: Q04DX002 (ip), vehicle: saline 93 % of control | dose: 200.0 mg/kg/injection, schedule: Q04DX002 (ip), vehicle: saline 101 % of control | dose: 400.0 mg/kg/injection, schedule: Q04DX002 (ip), vehicle: saline 104 % of control

Br/C=C(\Br)CBr
inactive: dose: 75.0 mg/kg/injection, schedule: Q01DX001 (sc), vehicle: olive oil, sesame oil, peanut oil 105 % of control | dose: 150.0 mg/kg/injection, schedule: Q01DX001 (sc), vehicle: olive oil, sesame oil, peanut oil 108 % of control

CC(=O)Nc1ccc(NC(=O)c2ccc(C(=O)Nc3ccc(NC(C)=O)cc3)cc2)cc1
inactive: dose: 100.0 mg/kg/injection, schedule: Q01DX001 (ip), vehicle: other 98 % of control | dose: 200.0 mg/kg/injection, schedule: Q01DX001 (ip), vehicle: other 93 % of control | dose: 400.0 mg/kg/injection, schedule: Q01DX001 (ip), vehicle: other 96 % of control

O=C(COc1ccc(Cl)cc1Cl)NCCBr
inactive: [1] 91 % of control | [13] 92 % of control | [14] 96 % of control

C/C=C(/C#N)c1ccccc1
inactive: [3] 107 % of control | [4] 106 % of control | [2] 90 % of control | [15] 100 % of control | [5] 96 % of control

CCc1cccc(CC)c1N1C(=O)CC(Sc2ccccc2N)C1=O (stereo not drawn)
inactive: [16] 93 % of control | dose: 100.0 mg/kg/injection, schedule: Q04DX003 (ip), vehicle: gum acacia 96 % of control | [17] 91 % of control | dose: 200.0 mg/kg/injection, schedule: Q04DX003 (ip), vehicle: gum acacia 91 % of control | [18] 98 % of control | dose: 400.0 mg/kg/injection, schedule: Q04DX003 (ip), vehicle: gum acacia 100 % of control

CC1(OC(=O)c2ccc([N+](=O)[O-])cc2)CC2CC1c1ccccc12 (stereo not drawn)
inactive: dose: 50.0 mg/kg/injection, schedule: Q01DX001 (ip), vehicle: carboxymethylcellulose (CMC) 90 % of control | [19] 111 % of control | [20] 90 % of control

C=CC(=O)NC(C)=O
inactive: dose: 12.5 mg/kg/injection, schedule: Q04DX002 (ip), vehicle: Klucel (hydroxypropylcellulose) (HPC) 103 % of control | [21] 92 % of control | [22] 95 % of control

CC(C)C1NC(=O)C(Cc2c[nH]c3ccccc23)NC1=O (stereo not drawn)
inactive: [10] 101 % of control | [11] 101 % of control | [12] 91 % of control

O=C(O)c1ccc(S(=O)(=O)c2ccc(C(=O)O)cc2)cc1
inactive: [23] 103 % of control | [24] 97 % of control | [25] 88 % of control

O=C1CC2C(=O)C1C(C(=O)O)C2C(=O)O (stereo not drawn)
inactive: dose: 75.0 mg/kg/injection, schedule: Q01DX001 (ip), vehicle: saline 112 % of control | dose: 150.0 mg/kg/injection, schedule: Q01DX001 (ip), vehicle: saline 102 % of control | dose: 300.0 mg/kg/injection, schedule: Q01DX001 (ip), vehicle: saline 95 % of control

CC(C(=O)O)N(C)C(=O)c1cnc2ccccc2n1 (stereo not drawn)
inactive: dose: 100.0 mg/kg/injection, schedule: Q01DX001 (ip), vehicle: carboxymethylcellulose (CMC) 94 % of control | dose: 100.0 mg/kg/injection, schedule: Q04DX003 (ip), vehicle: carboxymethylcellulose (CMC) 95 % of control | [19] 96 % of control | dose: 200.0 mg/kg/injection, schedule: Q04DX003 (ip), vehicle: carboxymethylcellulose (CMC) 99 % of control | [20] 89 % of control | dose: 400.0 mg/kg/injection, schedule: Q04DX003 (ip), vehicle: carboxymethylcellulose (CMC) 97 % of control

COc1ccc(Cl)cc1NC(=O)OCCCc1ccccc1
inactive: [16] 108 % of control | [17] 98 % of control | [18] 109 % of control

CC(C)C(C(=O)O)C(=O)O
inactive: [10] 102 % of control | [11] 104 % of control | [12] 112 % of control

CC(=O)c1cccc(NC(=O)Nc2ccc(S(N)(=O)=O)cc2)c1
inactive: [4] 105 % of control | [15] 97 % of control

C=CCOC(=O)C1CC(C(=O)OCC=C)C(C(=O)OCC=C)C1C(=O)OCC=C (stereo not drawn)
inactive: [1] 100 % of control | [23] 91 % of control | [13] 92 % of control | [24] 100 % of control | [14] 92 % of control | [25] 96 % of control

NC1(c2ccccc2)CC1
inactive: [21] 90 % of control | [22] 93 % of control | [26] 95 % of control and 98 % of control

O=C(Nc1ccccc1F)OCc1ccco1
inactive: dose: 100.0 mg/kg/injection, schedule: Q01DX001 (ip), vehicle: Klucel (hydroxypropylcellulose) (HPC) 99 % of control | [1] 95 % of control and 102 % of control | [26] 102 % of control and 106 % of control | dose: 200.0 mg/kg/injection, schedule: Q01DX001 (ip), vehicle: Klucel (hydroxypropylcellulose) (HPC) 99 % of control | [13] 95 % of control and 91 % of control | dose: 200.0 mg/kg/injection, schedule: Q04DX002 (ip), vehicle: Klucel (hydroxypropylcellulose) (HPC) 106 % of control and 118 % of control | dose: 400.0 mg/kg/injection, schedule: Q01DX001 (ip), vehicle: Klucel (hydroxypropylcellulose) (HPC) 94 % of control | [14] 98 % of control and 102 % of control | dose: 400.0 mg/kg/injection, schedule: Q04DX002 (ip), vehicle: Klucel (hydroxypropylcellulose) (HPC) 96 % of control and 104 % of control

NN1CCCC1
inactive: dose: 50.0 mg/kg/injection, schedule: Q01DX009 (ip), vehicle: saline 98 % of control | [6] 96 % of control | [7] 99 % of control | dose: 200.0 mg/kg/injection, schedule: Q04DX003 (ip), vehicle: saline 96 % of control

COc1ccc(CCn2ccc(C(=O)O)cc2=O)cc1OC
inactive: [1] 89 % of control | [23] 91 % of control | [13] 101 % of control | [24] 94 % of control | [14] 99 % of control | [25] 105 % of control
